Laboratory results as given in paper PMC8795738, “The Tarantula Venom Peptide Eo1a Binds to the Domain II S3-S4 Extracellular Loop of Voltage-Gated Sodium Channel NaV1.8 to Enhance Activation” (Frontiers in Pharmacology, 2022).
Where a SMILES comes first, the peptide text is derived from it. Bridges are numbered along the chain shown (N, C = ends).

What was measured:
[1] = target: NaV1.8 (Homo sapiens, UniProt Q9Y5Y9); experiment: Concentration-response of NaV1.8 peak current, QPatch whole-cell patch-clamp; format: cell-based; conditions: CHO cells, hNaV1.8/β3, holding −90 mV, 50 ms pulse to +10 mV every 20 s, 5 min incubation, ECS with 0.1% BSA, 1 μM TTX, pH 7.4, four-parameter Hill fit, mean ± SEM, n = 7 cells, read-out: EC50 for increase in NaV1.8 peak current
Chain of NaV1.8 (Q9Y5Y9 whole entry): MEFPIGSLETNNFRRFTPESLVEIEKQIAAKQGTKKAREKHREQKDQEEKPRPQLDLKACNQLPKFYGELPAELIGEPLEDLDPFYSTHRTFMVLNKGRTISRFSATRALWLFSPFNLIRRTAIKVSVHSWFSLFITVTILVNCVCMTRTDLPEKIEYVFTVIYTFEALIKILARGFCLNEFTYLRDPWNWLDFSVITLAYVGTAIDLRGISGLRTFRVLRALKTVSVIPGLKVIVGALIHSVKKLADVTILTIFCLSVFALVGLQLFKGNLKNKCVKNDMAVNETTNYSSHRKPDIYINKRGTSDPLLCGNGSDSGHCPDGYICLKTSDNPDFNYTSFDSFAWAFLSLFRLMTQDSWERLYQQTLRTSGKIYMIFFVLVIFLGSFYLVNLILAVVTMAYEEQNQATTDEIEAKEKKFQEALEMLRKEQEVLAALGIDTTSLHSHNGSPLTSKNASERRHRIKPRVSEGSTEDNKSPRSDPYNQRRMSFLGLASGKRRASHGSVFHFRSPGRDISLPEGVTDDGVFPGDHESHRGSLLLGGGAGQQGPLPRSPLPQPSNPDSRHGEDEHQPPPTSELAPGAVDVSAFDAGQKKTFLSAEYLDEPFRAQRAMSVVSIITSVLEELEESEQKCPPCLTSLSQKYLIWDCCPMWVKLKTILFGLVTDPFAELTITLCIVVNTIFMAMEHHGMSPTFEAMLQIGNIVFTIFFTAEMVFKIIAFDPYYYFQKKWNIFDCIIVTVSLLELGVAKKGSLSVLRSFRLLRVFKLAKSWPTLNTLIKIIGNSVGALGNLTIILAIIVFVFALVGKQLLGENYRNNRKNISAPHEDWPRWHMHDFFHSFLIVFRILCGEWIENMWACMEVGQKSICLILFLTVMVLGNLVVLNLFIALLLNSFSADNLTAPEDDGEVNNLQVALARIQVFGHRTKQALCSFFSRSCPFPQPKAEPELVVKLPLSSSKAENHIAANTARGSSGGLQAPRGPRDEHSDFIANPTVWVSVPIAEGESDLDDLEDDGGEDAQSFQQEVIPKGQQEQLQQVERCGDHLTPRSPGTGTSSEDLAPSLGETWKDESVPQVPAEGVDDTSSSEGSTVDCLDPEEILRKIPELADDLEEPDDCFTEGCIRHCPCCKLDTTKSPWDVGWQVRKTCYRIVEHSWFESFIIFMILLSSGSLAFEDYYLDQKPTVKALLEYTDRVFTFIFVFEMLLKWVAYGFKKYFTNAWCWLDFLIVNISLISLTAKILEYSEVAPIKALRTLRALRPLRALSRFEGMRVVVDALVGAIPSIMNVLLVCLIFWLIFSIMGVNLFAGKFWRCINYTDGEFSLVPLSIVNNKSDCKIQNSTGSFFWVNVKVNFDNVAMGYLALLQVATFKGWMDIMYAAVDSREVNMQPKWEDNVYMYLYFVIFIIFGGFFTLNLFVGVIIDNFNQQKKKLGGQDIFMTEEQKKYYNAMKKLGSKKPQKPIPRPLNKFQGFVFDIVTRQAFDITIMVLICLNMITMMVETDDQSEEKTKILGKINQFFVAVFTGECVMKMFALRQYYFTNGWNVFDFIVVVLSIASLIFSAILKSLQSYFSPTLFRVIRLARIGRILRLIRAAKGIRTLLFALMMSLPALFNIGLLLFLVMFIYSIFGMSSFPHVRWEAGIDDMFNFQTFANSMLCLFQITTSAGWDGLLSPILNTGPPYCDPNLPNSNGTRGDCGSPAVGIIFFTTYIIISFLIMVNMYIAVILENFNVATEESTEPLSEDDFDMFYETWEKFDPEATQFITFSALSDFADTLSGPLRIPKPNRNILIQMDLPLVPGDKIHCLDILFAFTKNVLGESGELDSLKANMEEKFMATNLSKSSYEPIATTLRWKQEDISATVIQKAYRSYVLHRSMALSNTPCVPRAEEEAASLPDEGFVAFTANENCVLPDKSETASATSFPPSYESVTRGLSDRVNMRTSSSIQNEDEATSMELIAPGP
Protocol: (§1) Human Embryonic Kidney (HEK) 293 cells stably expressing human NaV1.1 to NaV1.7/β1 (SB Drug Discovery, Glasgow, United Kingdom), Chinese Hamster Ovary (CHO) cells stably expressing human NaV1.8/β3 in a tetracycline-inducible system (ChanTest, Cleveland, OH, United States), and HEK293 cells stably expressing rat transient receptor potential vanilloid 1 (TRPV1) were cultured as previously described ([Yin et al., 2020]). Human KV2.1 and NaV1.7 mutants were transiently transfected into HEK293 cells stably expressing β1/β2 using Lipofectamine 2000 (Thermo Fisher Scientific, Scoresby, VIC, Australia) and used for patch-clamp experiments 48 h after transfection. Cells were grown in an incubator at 37°C with 5% CO2 and passaged every 3–4 d (at 70–80% confluency) using TrypLE Express (Thermo Fisher Scientific).
Automated whole-cell patch-clamp recordings were performed with a QPatch-16 automated electrophysiology platform (Sophion Bioscience, Ballerup, Denmark) using single-hole (QPlate 16 with a standard resistance of 2 ± 0.4 MΩ) or multi-hole (QPlate 16X with a standard resistance 0.2 ± 0.04 MΩ, NaV1.8 only) as previously described ([McMahon et al., 2020]). […]

[2] = test system: NaV1.1; experiment: I-V protocol, whole-cell patch-clamp, NaV1.1; format: cell-based, human; conditions: Eo1a 10 μM
Protocol: as §1
Automated whole-cell patch-clamp recordings were performed with a QPatch-16 automated electrophysiology platform (Sophion Bioscience, Ballerup, Denmark) using single-hole (QPlate 16 with a standard resistance of 2 ± 0.4 MΩ) or multi-hole (QPlate 16X with a standard resistance 0.2 ± 0.04 MΩ, NaV1.8 only) as previously described ([McMahon et al., 2020]).
The extracellular solution (ECS) consisted of (in mM) 145 NaCl (replaced with 70 choline chloride for NaV1.4, NaV1.5 and NaV1.7), 4 KCl, 2 CaCl2, 1 MgCl2, 10 HEPES, and 10 glucose, pH to 7.4 with NaOH (adjusted to 305 mOsm/L with sucrose). For NaV recordings the intracellular solution (ICS) consisted of (in mM) 140 CsF, 1 EGTA, 5 CsOH, 10 HEPES, and 10 NaCl, pH to 7.3 with CsOH (adjusted to 320 mOsm/L with sucrose). For KV2.1 recordings the ICS consisted of (in mM) 50 KCl, 60 KF, 10 EGTA, 10 HEPES, 10 NaCl pH to 7.3 with KOH (adjusted to 320 mOsm/L with sucrose). TTX (1 μM) was added to the ECS for NaV1.8 recordings to inhibit background endogenous TTX sensitive current in CHO cells.
I-V curves were obtained with a holding potential of −90 mV followed by a series of 500 ms step pulses that ranged from −110 to +80 mV in 5-mV increments (repetition interval 5 s) before and after 5 min incubation with Eo1a (10 μM). Conductance-voltage (G-V) curves were obtained by calculating the conductance (G) at each voltage (V) using equation G = I/(V − V rev ), where V rev is the reversal potential. G-V curves were fitted with a Boltzmann equation. […]
The time constant of fast inactivation (τ) was computed by fitting the current decay traces with a single exponential function using QPatch Assay Software 5.6 (Sophion). The time to peak was calculated from pulse onset to peak inward current using QPatch Assay Software 5.6 (Sophion).

[3] = test system: mice; experiment: Spontaneous pain behaviours after intraplantar injection in mice; format: in vivo, mouse; conditions: 40 μl intraplantar, n = 3–4
Description: Adult male C57BL/6J mice aged 4–8 weeks were sourced from the Animal Resource Centre (Canning Vale, Western Australia). Adult male NaV1.8 knockouts ([Nassar et al., 2004]) (aged 8–11 weeks) and wild-type littermates were housed and tested at University College London. Animals were housed in groups of three or four per cage under 12-h light-dark cycles and were provided with standard rodent chow and water ad libitum. Ethical approval for experiments involving animals was obtained from The University of Queensland animal ethics committee (TRI/IMB/093/17, IMB/PACE/421/18) and the United Kingdom Home Office (project licence PPL 70/7382). All experiments were conducted in accordance with the International Association for the Study of Pain Guidelines for the Use of Animals in Research and the Australian Code of Practice for the Care and Use of Animals for Scientific Purposes, 8th edition (2013).
Eo1a (1 μM or 10 μM) was diluted in saline/0.1% BSA and administered by intraplantar injection to the left hind paw of mice in a volume of 40 μl under isoflurane (3%) anaesthesia, and spontaneous pain behaviours (licks, bites, shakes, and lifts of the hind paw) were counted by a blinded investigator for up to 40 min after the injection.

[4] = test system: NaV1.7 with DII S1-S2 loop of NaV1.8; experiment: Voltage-dependence of activation, NaV1.7/NaV1.8 chimera DII S1-S2; format: cell-based, human; conditions: Eo1a 10 μM; NaV1.7 with NaV1.8 DII S1-S2; HEK293 β1/β2, transient; mean ± SEM, n = 3–6 cells
Protocol: as §1
(§2) Wild-type (WT) hNaV1.7 cDNA (NM_002,977, a gift from Dr James Cox, University College London) was subjected to in vitro site-directed mutagenesis using the QuikChange™ XL mutagenesis kit (Agilent Technologies) following the manufacturer’s instructions. NaV1.7 mutants were generated by substituting the domain II (DII) S1-S2 loop, the DII S3-S4 loop, the domain IV (DIV) S1-S2 loop and the DIV S3-S4 loop in NaV1.7 with the corresponding regions of NaV1.8. The mutations were verified by sequencing at the Brisbane node of the Australian Genome Research Facility. […]

[5] = test system: NaV1.7 with DIV S1-S2 loop of NaV1.8; experiment: Voltage-dependence of activation, NaV1.7/NaV1.8 chimera DIV S1-S2; format: cell-based, human; conditions: Eo1a 10 μM; NaV1.7 with NaV1.8 DIV S1-S2; HEK293 β1/β2, transient; mean ± SEM, n = 3–6 cells
Protocol: as §1, §2

CC[C@H](C)[C@@H]1NC(=O)[C@H](CCCNC(=N)N)NC(=O)[C@@H]2CSSC[C@@H]3NC(=O)CNC(=O)CNC(=O)[C@H](CC(C)C)NC(=O)[C@H](Cc4ccccc4)NC(=O)[C@H](Cc4c[nH]c5ccccc45)NC(=O)[C@H](CCCNC(=N)N)NC(=O)[C@@H](NC(=O)[C@@H](N)CC(=O)O)CSSC[C@H](NC(=O)[C@H](CSSC[C@@H](C(=O)N[C@@H](C)C(=O)N[C@@H](Cc4c[nH]c5ccccc45)C(=O)N[C@@H](CC(=O)O)C(=O)NCC(=O)N[C@H](C(=O)N[C@@H](Cc4ccccc4)C(N)=O)[C@@H](C)O)NC(=O)[C@H](Cc4ccc(O)cc4)NC(=O)[C@H](CCCCN)NC(=O)[C@H]([C@@H](C)CC)NC(=O)[C@H](Cc4ccc(O)cc4)NC(=O)CNC(=O)[C@H](CC(=O)O)NC1=O)NC(=O)[C@H](CC(=O)O)NC(=O)[C@H](CO)NC(=O)[C@H](CC(=O)O)NC(=O)[C@H](CCCCN)NC(=O)[C@H](CO)NC3=O)C(=O)N[C@@H](CCCCN)C(=O)N[C@@H](Cc1c[nH]cn1)C(=O)N[C@@H](CC(C)C)C(=O)N[C@@H](C)C(=O)N2 [Eo1a] (H-DCRWFLGGCSKDSDCCKHLACRIDGYIKYCAWDGTF-NH2; disulfide 2-16, 9-21, 15-30 (inferred); N-terminus assumed)
EC50 [1]: 894 ± 146 nM
peak current I/I0 ([2]; 5 min, peak from I-V protocol at any voltage, normalised to buffer control, HEK293 hNaV1.1/β1, mean ± SEM, n = 4–6 cells): 0.89 ± 0.03
V1/2 activation ([2]; NaV1.1, 5 min, control −21.5 ± 1.5 mV, mean ± SEM, n = 4–6): −24.4 ± 2.1 mV
V1/2 inactivation (steady-state fast inactivation) ([2]; NaV1.1, 5 min, control −55.0 ± 1.1 mV, mean ± SEM, n = 4–6): −57.8 ± 2.0
effect on inactivation kinetics ([2]; NaV1.1, test pulse −20 mV): minimal effect
spontaneous pain behaviours ([3]; Eo1a 1 μM): induced spontaneous pain behaviours
spontaneous pain behaviours ([3]; Eo1a 10 μM, gradually subsided over 30 min): caused spontaneous pain behaviours that gradually subsided over 30 min
ΔV1/2 activation [4]: −3.7 ± 0.5 mV
ΔV1/2 activation [5]: −4.8 ± 0.6 mV
